This is an account of results in US20180179524A1, “COMPOSITIONS AND METHODS FOR INHIBITING CELL PROLIFERATION” (President and Fellows of Harvard College, priority 2015, published 2018).

The subject of this data set is luciferase-based reporter constructs in S2R+ cells. In words: Luciferase-based mutation reporter assay (sgRNA mutation efficiency). The conditions noted are these: sgRNAs with no mismatches targeting luciferase-based reporter in S2R+ cells; mutation rate = 1/Firefly luciferase normalized to Renilla. It counts as cell-based, Drosophila. The protocol:
The luciferase reporter vector was constructed by PCR amplifying the metallothionein promoter from pMK33 and luciferase gene from pGL3 (Table 1) and combining these with annealed oligos containing a gRNA target site (Table 1 and Table 2) and a custom made cloning vector using Golden Gate assembly.
Luciferase assays were performed by transfecting S2R+ cells with the relevant pl018 plasmid, luciferase reporter and pRL-TK (Promega) (to allow normalization of transfection efficiencies between samples) in 96 well plates using Effectene Transfection Reagent (Qiagen) according to the manufacturer's recommendations. Twenty-four hours after transfection, CuSO4 was added to the cell media at a final concentration of 140 μM and cells were incubated for a further 16 hours.
Firefly and Renilla luciferase readings were taken using the Dual-Glo Luciferase Assay System (Promega) according to manufacturer's instructions and a SpectraMax Paradigm Multi-Mode Microplate Detection Platform (Molecular Devices).
Because the rate of mutations varies widely between different sgRNAs (25-27), whether efficiency could be predicted based on the sgRNA sequence was tested. 75 additional sgRNAs were generated, each targeting luciferase-based reporter constructs with no mismatches and tested mutation efficiency for each. Using this panel of sgRNAs and associated efficiencies, the presence or absence of a correlation between GC content and mutation rate was examined. […] Next, whether a more general sequence-based approach was tested for its ability to improve efficiency prediction. The nucleotide content of all 75 sgRNAs was examined, considering each position separately and generated a probability matrix linking nucleotide content with mutation rate (FIG. 1, panel B). This was then used to generate predicted efficiency scores based on sgRNA sequence. […] Note that sgRNAs targeting close to the 3′ end of genes or with apparent viability effects were not included in this analysis. Finally, predicted scores were generated for all sgRNA target sites in the Drosophila genome and annotated.
For orientation: A reporter such as luciferase makes a cellular process visible.

In turn, “AAACAGAAGGTCTTCCCCAA: sgRNA targeting a luciferase-based reporter construct, no mismatches (chemistry not given here)” had a Mean efficiency of 0.3046. In the case of “AAAGAGCTGCGGGCCGGGCG: sgRNA targeting a luciferase-based reporter construct, no mismatches (chemistry not given here)”, the Mean efficiency came to 0.06954. As to “AACGACATCACGGTCCATGC: sgRNA targeting a luciferase-based reporter construct, no mismatches (chemistry not given here)”, the Mean efficiency was 0.2424. Take “AACTCAAAGACCCGCTTTCG: sgRNA targeting a luciferase-based reporter construct, no mismatches (chemistry not given here)”: the Mean efficiency was determined as 0.1408. Next, “AAGATAAGTTCTCTCCTATT: sgRNA targeting a luciferase-based reporter construct, no mismatches (chemistry not given here)”: 0.04594. The result for “AAGTAGGCTCTCCTGAATGG: sgRNA targeting a luciferase-based reporter construct, no mismatches (chemistry not given here)” reads 0.1224; that for “ACCAGCATATGCCGGCCTGC: sgRNA targeting a luciferase-based reporter construct, no mismatches (chemistry not given here)”, 0.767. The result for “ACCCTGTCCACTCATATATG: sgRNA targeting a luciferase-based reporter construct, no mismatches (chemistry not given here)” reads 0.4172; that for “ACCGAAAGTCGCGCCGGACG: sgRNA targeting a luciferase-based reporter construct, no mismatches (chemistry not given here)”, 0.2496. “ACCGCCAAACGGACCGCTTA: sgRNA targeting a luciferase-based reporter construct, no mismatches (chemistry not given here)” showed a Mean efficiency of 0.3105. Next, “ACGCGCACGGGTCTCACGCC: sgRNA targeting a luciferase-based reporter construct, no mismatches (chemistry not given here)”: 0.3288; “AGACTGGTTTCCACCCGCTC: sgRNA targeting a luciferase-based reporter construct, no mismatches (chemistry not given here)”: 1.298.

Consider “AGGGAGTCCGCATAGGCGGC: sgRNA targeting a luciferase-based reporter construct, no mismatches (chemistry not given here)”, for which the Mean efficiency was found to be 0.1819. “AGTCCTCACCGTGGGGCACC: sgRNA targeting a luciferase-based reporter construct, no mismatches (chemistry not given here)” yielded a Mean efficiency of 0.09069.

Substance “ATAGTTCCCTCCATGCCCTT: sgRNA targeting a luciferase-based reporter construct, no mismatches (chemistry not given here)” showed a Mean efficiency of 0.07786.

“ATATCGGAGTCGGCCCAACC: sgRNA targeting a luciferase-based reporter construct, no mismatches (chemistry not given here)” showed a Mean efficiency of 0.4113. Next, “ATCTGACCTCCCGGCTAATT: sgRNA targeting a luciferase-based reporter construct, no mismatches (chemistry not given here)”: 0.05737. Next, “ATCTGGTCAGGACGCAAAGC: sgRNA targeting a luciferase-based reporter construct, no mismatches (chemistry not given here)”: 0.1406; “ATCTTCCCGTCGACATAGCC: sgRNA targeting a luciferase-based reporter construct, no mismatches (chemistry not given here)”: 0.1609. Substance “CAACCAACAGGTCCGGCCCC: sgRNA targeting a luciferase-based reporter construct, no mismatches (chemistry not given here)” returned a Mean efficiency of 0.3833. For the substance “CAAGCAAGTCCGGTCGGTTG: sgRNA targeting a luciferase-based reporter construct, no mismatches (chemistry not given here)”, the Mean efficiency was found to be 0.3531. The result for “CAGCCTCTCCCTGCGGATGC: sgRNA targeting a luciferase-based reporter construct, no mismatches (chemistry not given here)” reads 0.2509; that for “CAGGCATTGTGACGACGCGC: sgRNA targeting a luciferase-based reporter construct, no mismatches (chemistry not given here)”, 0.1744. Next, “CCACCGCGATATATGGGCGA: sgRNA targeting a luciferase-based reporter construct, no mismatches (chemistry not given here)”: 0.5711; “CCAGTAACGTCAAAGCTAGG: sgRNA targeting a luciferase-based reporter construct, no mismatches (chemistry not given here)”: 0.1068. On to “CCGCCGTGTGCTGCGAATAC: sgRNA targeting a luciferase-based reporter construct, no mismatches (chemistry not given here)”, for which the Mean efficiency worked out at 0.1661. On to “CCGCGCCGAGGACTACCGCC: sgRNA targeting a luciferase-based reporter construct, no mismatches (chemistry not given here)”, for which the Mean efficiency was 0.4568.

Take “CCGTCGAAGAACCGCGCAAT: sgRNA targeting a luciferase-based reporter construct, no mismatches (chemistry not given here)”: the Mean efficiency stood at 1.029. Turning to “CCTGGATGATACGCTGGCGC: sgRNA targeting a luciferase-based reporter construct, no mismatches (chemistry not given here)”, the Mean efficiency is 0.1807. The result for “CCTTCGCGAGCACCCGGAAA: sgRNA targeting a luciferase-based reporter construct, no mismatches (chemistry not given here)” reads 0.3812; that for “CGAATTACTACGTAGAGCGG: sgRNA targeting a luciferase-based reporter construct, no mismatches (chemistry not given here)”, 0.1117; that for “CGACGTTCCTGGCTCAATTG: sgRNA targeting a luciferase-based reporter construct, no mismatches (chemistry not given here)”, 0.9067. The substance “CGCCGGCACCGCGTCCCTAT: sgRNA targeting a luciferase-based reporter construct, no mismatches (chemistry not given here)” gave a Mean efficiency of 0.2542.

The substance “CGTCGTTCTCGCCACCGCGC: sgRNA targeting a luciferase-based reporter construct, no mismatches (chemistry not given here)” registered a Mean efficiency of 0.1461.

“CTCACAGACGGCGCCCGGCG: sgRNA targeting a luciferase-based reporter construct, no mismatches (chemistry not given here)” returned a Mean efficiency of 0.4741. In the case of “CTGCCGTTCTTCAGAAATAT: sgRNA targeting a luciferase-based reporter construct, no mismatches (chemistry not given here)”, the Mean efficiency amounted to 0.3101.

With “CTGGGCCGGCGTGTCCGTTC: sgRNA targeting a luciferase-based reporter construct, no mismatches (chemistry not given here)”, the Mean efficiency was 0.4328. The result for “CTTCCGACCCTTCGTTAGCC: sgRNA targeting a luciferase-based reporter construct, no mismatches (chemistry not given here)” reads 0.1815; that for “GAACTCCGACTAGATTATAT: sgRNA targeting a luciferase-based reporter construct, no mismatches (chemistry not given here)”, 0.4012. The result for “GACAAAGGATACTCAAATCC: sgRNA targeting a luciferase-based reporter construct, no mismatches (chemistry not given here)” reads 0.05169.
